Experimental data published in paper PMC8391104, “Molecular mechanism of Mad1 kinetochore targeting by phosphorylated Bub1” (EMBO Reports, 2021).
Substitutions are numbered along the chain they refer to. Where a SMILES comes first, the peptide text is derived from it. [ ]: non-standard residue; d: D form. pT = C[C@@H](OP(=O)(O)O)[C@H](N)C(=O)O; pS = N[C@@H](COP(=O)(O)O)C(=O)O

Legend:
Peptide solubility = format: physicochemical; conditions: Hepes buffer, aqueous buffer; 20 mM Hepes, pH 7.5, 100 mM NaCl, 1 mM TCEP, without DMSO; read-out: solubility
Method: Our ITC and sedimentation equilibrium experiments to measure the stoichiometry of the Mad1^CTD‐Bub1^CD1 interaction were performed with concentrations of Mad1 at 100 µM or lower, and titrating Bub1 until a twofold‐fourfold molar excess was obtained. However, our ^31P NMR experiments were conducted with around 0.25 to 0.5 mM of each, and still only one binding event was detected. […] DMSO interfered with ITC enthalpy changes and the NMR signal from DMSO obscured the protein peaks. In contrast, our Mad1^CTD‐Bub1^CD1 crystal structure was obtained through co‐crystallization of Mad1^CTD at a final concentration of 0.35 mM and Bub1^CD1 at 2.5 mM in 5% DMSO. The use of millimolar concentrations of peptide, and the presence of DMSO and isopropanol, required for Mad1^CTD‐Bub1^CD1 crystallization, may explain the association of a second peptide in the crystallized complex. […]
which are affected are already mapped out in Fig 5B, and this can be tracked across Bub1CD1 […]
We thank the reviewer for their positive and constructive comments.
1) On page 2, the first line of the third paragraph, Msp1 should be Mps1.
Response: Thank you, we have corrected this error.
2) Please provide a figure to show the omit map (2Fo−Fc map) for the BUB1 CD1 peptide.
Response: We have created a 2Fo-Fc omit map and included it in Fig EV2D and updated the figure legend accordingly. […]
2) p. 5, near bottom. The authors state that the singly phosphorylated Bub1 peptide (on Thr-461) is less soluble than the double phosphorylated peptide (also phosphorylated on Ser-459), which may explain previous reports that P-Ser-459 contributes to binding Mad1-CTD. It would be helpful if the authors could quantify this reduced solubility.
Response: We realise that our comment on the reduced solubility of the singly phosphorylated pT461 peptide is likely confusing, so we have removed this comment.
In terms of quantifying the reduced solubility, we observed an approximately 2-fold reduction of the solubility of the singly phosphorylated peptide. […]

[1] = target: T1, Mad1^CTD QRRI** (Q627A, R650A, I643A, R630A) (Homo sapiens, UniProt Q9Y6D9, I643A/Q627A/R630A/R650A); assay: ITC, Mad1^CTD QRRI** quadruple mutant; format: binding; conditions: 20°C, pH 7.5, QRRI**, average of at least three experiments ± SD
T1 construct: human Mad1^CTD homodimer (residues 597–718); double Strep His6-tag with TEV site (N, cleaved yes); made in house; host or cells: E. coli Rosetta 2 (DE3)
T1 sequence (Q9Y6D9 597-718 Q627A/R630A/I643A/R650A limits assumed): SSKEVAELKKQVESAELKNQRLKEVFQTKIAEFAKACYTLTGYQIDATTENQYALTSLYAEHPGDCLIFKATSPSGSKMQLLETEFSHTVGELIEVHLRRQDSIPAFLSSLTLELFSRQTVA
Excerpt: (§1) The coding region of Mad1^597–719 was cloned by USER® (NEB) into a modified pRSFDuet‐1 vector (71341‐3, Sigma‐Aldrich) with an N‐terminal double Strep His6‐tag, followed by a tobacco etch virus (TEV) protease cleavage site (Demple & Linn, [1982]; Bitinaite et al, [1992]). Mad1 mutants were generated using the QuikChange™ Lightning Site‐Directed Mutagenesis Kit (Agilent), developed by Stratagene Inc. (La Jolla, CA) (Nøhr & Kristiansen, [2003]). Mad1 constructs were transformed into Rosetta™ 2 (DE3) Singles™ Competent Cells (71400, Novagen) for expression. Expression was induced with 0.5 mM IPTG and grown overnight at 18°C. Cells were lysed in 25 mM HEPES pH 8.1, 250 mM NaCl, 2 mM DTT, 5% glycerol, 2 mM EDTA supplemented with lysozyme, and Complete™ EDTA‐free protease inhibitors (Roche). Proteins were purified over a Strep‐Tactin Superflow Plus column (QIAGEN) and cleaved with TEV protease overnight at 4°C. The cleaved Mad1^CTD was then diluted to 50 mM NaCl, purified over an anion exchange (Resource Q, GE Healthcare) column, followed by size exclusion chromatography using a Superdex 75 Increase column (GE Healthcare). Mad1^CTD was concentrated to 35 mg/ml in a buffer of 20 mM HEPES pH 7.5, 100 mM NaCl and 1 mM TCEP.
(§2) Isothermal titration calorimetry (ITC) was performed using an Auto‐iTC200 instrument (Malvern Instruments, Malvern, UK) at 20°C. […]

Mad1^CTD R630A = target: T2, Mad1^CTD R630A (Homo sapiens, UniProt Q9Y6D9, R630A); assay: ITC, Mad1^CTD R630A; format: binding; conditions: 20°C, pH 7.5, R630A, average of at least three experiments ± SD
T2 construct: human Mad1^CTD homodimer (residues 597–718); double Strep His6-tag with TEV site (N, cleaved yes); made in house; host or cells: E. coli Rosetta 2 (DE3)
T2 sequence (Q9Y6D9 597-718 R630A limits assumed): T1 sequence (Q9Y6D9 597-718 Q627A/R630A/I643A/R650A limits assumed) with A31Q, A47I, A54R
Excerpt: as §1, §2

Mad1^CTD K614A = target: T3, Mad1^CTD K614A (Homo sapiens, UniProt Q9Y6D9, K614A); assay: ITC, Mad1^CTD K614A; format: binding; conditions: 20°C, pH 7.5, K614A, average of at least three experiments ± SD
T3 construct: human Mad1^CTD homodimer (residues 597–718); double Strep His6-tag with TEV site (N, cleaved yes); made in house; host or cells: E. coli Rosetta 2 (DE3)
T3 sequence (Q9Y6D9 597-718 K614A limits assumed): T1 sequence (Q9Y6D9 597-718 Q627A/R630A/I643A/R650A limits assumed) with K18A, A31Q, A34R, A47I, A54R
Excerpt: as §1, §2

[2] = target: T4, human Mad1^CTD (WT) homodimer (Homo sapiens, UniProt Q9Y6D9); assay: ITC of Bub1^CD1 peptides binding to wild-type Mad1^CTD; conditions: for binding to Mad1^CTD by ITC, in words: pH 7.5, Mad1^CTD WT
T4 construct: human Mad1^CTD homodimer (residues 597–718); double Strep His6-tag with TEV site (N, cleaved yes); made in house; host or cells: E. coli Rosetta 2 (DE3)
T4 sequence (Q9Y6D9 597-718): T1 sequence (Q9Y6D9 597-718 Q627A/R630A/I643A/R650A limits assumed) with A31Q, A34R, A47I, A54R
Excerpt: as §1
Bub1^CD1 peptides were ordered from Designer Bioscience UK, at 95% purity. The full peptide sequence used in this study was (W)KVQP{pS}P{pT}VHTKEALGFIMNMFQAPTS. (W) = peptide with an additional N‐terminal tryptophan was used to confirm peptide concentration in stoichiometry studies.
Isothermal titration calorimetry (ITC) was performed using an Auto‐iTC200 instrument (Malvern Instruments, Malvern, UK) at 20°C. Mad1^CTD and Bub1^CD1 peptide mutants were dialysed into 20 mM HEPES pH 7.5, 100 mM NaCl, 1 mM TCEP. For each titration between 30–100 µM of Mad1 was pipetted into the calorimeter cell. The Bub1^CD1 peptides at 0.3–1.5 mM were titrated into the cell consisting of one 0.5 µl injection followed by 19 injections of 2 µl each. The changes in the heat released were integrated over the entire titration and fitted to a single‐site binding model using the MicroCal PEAQ‐ITC Analysis Software 1.0.0.1258 (Malvern Instruments). Titrations were performed in triplicate. Calculations for stoichiometry were based on the molar concentrations of dimeric Mad1^CTD.

Mad1^CTD K619A = target: T5, Mad1^CTD K619A (Homo sapiens, UniProt Q9Y6D9, K619A); assay: ITC, Mad1^CTD K619A; format: binding; conditions: 20°C, pH 7.5, K619A, average of at least three experiments ± SD
T5 construct: human Mad1^CTD homodimer (residues 597–718); double Strep His6-tag with TEV site (N, cleaved yes); made in house; host or cells: E. coli Rosetta 2 (DE3)
T5 sequence (Q9Y6D9 597-718 K619A limits assumed): T1 sequence (Q9Y6D9 597-718 Q627A/R630A/I643A/R650A limits assumed) with K23A, A31Q, A34R, A47I, A54R
Excerpt: as §1, §2

Mad1^CTD Q627A = target: T6, Mad1^CTD Q627A (Homo sapiens, UniProt Q9Y6D9, Q627A); assay: ITC, Mad1^CTD Q627A; format: binding; conditions: 20°C, pH 7.5, Q627A, average of at least three experiments ± SD
T6 construct: human Mad1^CTD homodimer (residues 597–718); double Strep His6-tag with TEV site (N, cleaved yes); made in house; host or cells: E. coli Rosetta 2 (DE3)
T6 sequence (Q9Y6D9 597-718 Q627A limits assumed): T1 sequence (Q9Y6D9 597-718 Q627A/R630A/I643A/R650A limits assumed) with A34R, A47I, A54R
Excerpt: as §1, §2

[3] = 1H 1D NMR of free Bub1^CD1 peptides (conformation); format: physicochemical; conditions: narrow dispersion of amide peaks, not bound to Mad1
Method: ^1H‐detected experiments were performed on 600 and 800 MHz Avance III spectrometers, both equipped with triple resonance TCI CryoProbes (Bruker). ^31P 1D NMR spectra were recorded on a 500 MHz Avance II spectrometer equipped with a broadband BBO cryoprobe (Bruker). All spectra were collected in 50 mM HEPES, pH 7.0, 100 mM NaCl, 2 mM TCEP, 0.02% NaN3 at 298K. Standard ^2H decoupled TROSY‐based triple resonance experiments were used for backbone resonance assignments: HNCO, HN(CA)CO, HNCA, HN(CO)CA, HNCACB, HN(CO)CACB and HN(COCA)NNH (Pervushin, [2020]). Backbone datasets were collected with 20–25% non‐uniform sampling and reconstructed using compressed sensing in MddNMR (Mayzel et al, [2014]). Topspin 3.6 (Bruker) was used for processing and NMRFAM‐Sparky 1.47 for data analysis (Lee et al, [2015]). Backbone assignments were obtained in Mars (Jung & Zweckstetter, [2004]). Secondary chemical shifts were calculated from the differences between observed Cα/Cβ chemical shifts and Cα/Cβ chemical shifts for random coils (Kjaergaard & Poulsen, [2011]). […]

15N-labelled Mad1^CTD = assay: NMR titration (1H,15N HSQC) of Bub1^CD1 peptides into 15N-labelled Mad1^CTD; format: binding, human; conditions: 298K, 50 mM HEPES pH 7.0, 100 mM NaCl, 2 mM TCEP, 0.02% NaN3
Method: Isotopically labelled Mad1^CTD was expressed in M9 minimal media (6 g/l Na2HPO4, 3 g/l KH2PO4, 0.5 g/l NaCl) supplemented with 1.7 g/l yeast nitrogen base without NH4Cl and amino acids (Sigma Y1251). 1 g/l ^15NH4Cl and 4 g/l unlabelled glucose were supplemented for ^15N labelling. For the deuteration of nonlabile sidechain protons, cells were adapted for growth in 10, 44 and 78% deuterated media on agar plates before they were grown in large cultures supplemented with 1 g/l ^15NH4Cl and 4 g/l ^2H^13C‐glucose in 99% D2O (Sigma). Prior to NMR experiments, isotopically labelled Mad1^CTD and Bub1^CD1 peptide were dialysed into 25 mM HEPES, pH 7.0, 100 mM NaCl, 1 mM TCEP.
^1H‐detected experiments were performed on 600 and 800 MHz Avance III spectrometers, both equipped with triple resonance TCI CryoProbes (Bruker). ^31P 1D NMR spectra were recorded on a 500 MHz Avance II spectrometer equipped with a broadband BBO cryoprobe (Bruker). All spectra were collected in 50 mM HEPES, pH 7.0, 100 mM NaCl, 2 mM TCEP, 0.02% NaN3 at 298K. […] Secondary chemical shifts were calculated from the differences between observed Cα/Cβ chemical shifts and Cα/Cβ chemical shifts for random coils (Kjaergaard & Poulsen, [2011]). […]

[4] = parameters: method as in Zhang et al, 2017; conditions: ref Zhang et al, 2017; cited from earlier work

solubility (Peptide solubility) [µM]	Kd [1] [µM]	Kd (Mad1^CTD R630A) [µM]	Kd (Mad1^CTD K614A) [µM]	Kd ([2]; 20°C, 20 mM HEPES pH 7.5, 100 mM NaCl, 1 mM TCEP, 30–100 µM Mad1 in cell, 0.3–1.5 mM peptide, single-site model, average of at least three experiments ± SD) [µM]	KD at lowered peptide concentration ([2]; lowered concentration of doubly phosphorylated peptide (usual: 100 µM Mad1CTD, 1 mM peptide))	Kd (Mad1^CTD K619A) [µM]	Kd (Mad1^CTD Q627A) [µM]	binding by NMR titration, in words (15N-labelled Mad1^CTD)	binding to Mad1^CTD by ITC, in words ([2]; 20°C)	binding to Mad1^CTD by ITC, in words ([2]; 20°C, listed as unphosphorylated Bub1^CD1 peptide)	Molecule	conformation of free peptide, in words [3]	conformation of unbound peptide by circular dichroism, in words [4]
≥ 1500	24.9 ± 1.3	10.1 ± 1.3	2.4 ± 0.43	2.7 ± 1.2	same KD	10.1 ± 5.4	2.4 ± 0.4				CC[C@H](C)[C@H](NC(=O)[C@H](Cc1ccccc1)NC(=O)CNC(=O)[C@H](CC(C)C)NC(=O)[C@H](C)NC(=O)[C@H](CCC(=O)O)NC(=O)[C@H](CCCCN)NC(=O)[C@@H](NC(=O)[C@H](Cc1c[nH]cn1)NC(=O)[C@@H](NC(=O)[C@@H](NC(=O)[C@@H]1CCCN1C(=O)[C@H](COP(=O)(O)O)NC(=O)[C@@H]1CCCN1C(=O)[C@H](CCC(N)=O)NC(=O)[C@@H](NC(=O)[C@@H](N)CCCCN)C(C)C)[C@@H](C)OP(=O)(O)O)C(C)C)[C@@H](C)O)C(=O)N[C@@H](CCSC)C(=O)N[C@@H](CC(N)=O)C(=O)N[C@@H](CCSC)C(=O)N[C@@H](Cc1ccccc1)C(=O)N[C@@H](CCC(N)=O)C(=O)N[C@@H](C)C(=O)N1CCC[C@H]1C(=O)N[C@H](C(=O)N[C@@H](CO)C(=O)O)[C@@H](C)O [pSpT CD1] (H-KVQP[pS]P[pT]VHTKEALGFIMNMFQAPTS-OH)		
								failed to reveal Bub1‐Mad1 interactions	no binding	complete absence of interactions	CD1: non‐phosphorylated Bub1^CD1 peptide (KVQPSPTVHTKEALGFIMNMFQAPTS; phosphoserine at 459, phosphothreonine at 461)	unstructured when not bound to Mad1	unstructured but might have helical propensity that is increased with Thr461 phosphorylation
